How the values were obtained:
[1] = target: T1, AmtB-GlnK complex (Escherichia coli, UniProt P69681); assay: native MS, mole fraction of lipid-bound states; assay type: binding; settings: ADP present, 200 mM ammonium acetate pH 7.4
T1 construct: with Nitrogen regulatory protein GlnK
T1 sequence (P69681 23-428): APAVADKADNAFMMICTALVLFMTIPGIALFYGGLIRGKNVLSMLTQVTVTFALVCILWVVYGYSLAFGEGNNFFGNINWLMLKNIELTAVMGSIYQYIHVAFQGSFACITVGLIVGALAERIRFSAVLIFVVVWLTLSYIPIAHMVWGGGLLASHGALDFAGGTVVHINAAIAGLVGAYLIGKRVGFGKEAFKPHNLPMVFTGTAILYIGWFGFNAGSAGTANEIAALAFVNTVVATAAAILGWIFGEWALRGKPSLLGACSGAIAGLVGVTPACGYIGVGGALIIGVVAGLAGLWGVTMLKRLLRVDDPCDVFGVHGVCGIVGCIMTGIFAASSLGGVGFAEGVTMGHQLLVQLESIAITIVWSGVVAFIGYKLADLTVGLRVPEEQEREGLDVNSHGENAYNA
T1 sequence (P0AC55 1-112 partner): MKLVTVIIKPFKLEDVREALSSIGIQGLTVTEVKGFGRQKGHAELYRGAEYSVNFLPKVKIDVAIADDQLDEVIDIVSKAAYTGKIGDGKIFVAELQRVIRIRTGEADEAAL

[2] = target: T2, AqpZ (AqpZ-STII) (Escherichia coli, UniProt P60844); assay: native MS lipid titration, sequential binding model; settings: LDAO; first lipid bound; range over conditions; 200 mM ammonium acetate pH 7.4, room temperature; read-out: Kd1
T2 construct: C-terminal Strep-tag II
T2 sequence (P60844 1-231): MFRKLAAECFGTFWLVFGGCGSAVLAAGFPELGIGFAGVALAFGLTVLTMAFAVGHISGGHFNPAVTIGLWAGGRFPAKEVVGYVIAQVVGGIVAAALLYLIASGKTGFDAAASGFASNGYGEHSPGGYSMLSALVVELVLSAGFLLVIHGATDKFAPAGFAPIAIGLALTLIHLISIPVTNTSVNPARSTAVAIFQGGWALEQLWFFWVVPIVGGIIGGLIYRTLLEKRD

[3] = target: T3, Aquaporin Z from Escherichia coli containing a C-terminal Strep-tag II (Escherichia coli), P60844; assay: native MS; 1 uM AqpZ in 200 mM ammonium acetate pH 7.4 with 2x CMC detergent (C8E4 or LDAO alone; DM, OGNG, NG, C8E4 or LDAO with 5 mM SPM or 60 mM TMAO); nanoESI, Exactive Plus EMR Orbitrap, room temperature; settings: remark: other sources report otherwise
T3 chain: T2 sequence (P60844 1-231)

Molecule: CCCCCCCC/C=C\CCCCCCCC(=O)O[C@H](COC(=O)CCCCCCCCCCCCCCC)COP(=O)(O)O [POPA]
- native MS, mole fraction of lipid-bound states ([1]; several detergents): POPA and POPS binding to AmtB-GlnK was broadly comparable for the different detergents

Molecule: CCCCCCCC/C=C\CCCCCCCC(=O)O[C@H](COC(=O)CCCCCCCCCCCCCCC)COP(=O)(O)OCC(O)CO (some centres unmarked) [POPG]
- native MS, mole fraction of lipid-bound states ([1]; several detergents): AmtB-GlnK in different detergent environments showed comparable binding of POPG

Molecule: CCCCCCCC/C=C\CCCCCCCC(=O)OC[C@H](COP(=O)(O)OCC(O)COP(=O)(O)OC[C@@H](COC(=O)CCCCCCC/C=C\CCCCCCCC)OC(=O)CCCCCCC/C=C\CCCCCCCC)OC(=O)CCCCCCC/C=C\CCCCCCCC (some centres unmarked) [TOCDL]
- native MS, mole fraction of lipid-bound states ([1]; 2 μM complex, 25 μM lipid, C8E4, LDAO, DM or NG): binding of TOCDL was more prominent in LDAO and DM
- Kd [2]: 300 to 1400 nM

B1: Aquaporin Z from Escherichia coli containing a C-terminal Strep-tag II, P60844 1-231 (natural protein)
chain: T2 sequence (P60844 1-231)
- stoichiometry N [3]: 4
